Results on three compounds are retold here after publication PMC11480361, “Design of a Cereblon construct for crystallographic and biophysical studies of protein degraders” (Nature Communications, 2024).

Values joined by “and” are separate entries in the source; they are usually repeats but may differ in a detail not shown here. Equal entries are not always repeated.

For assay [1], the target named is T1, CRBN^midi (Homo sapiens, UniProt Q96SW2, C287N/C343E/C78I/DEL188-248/G302D/I92V/INS187GSG/K116N/L342R/L423I/Q134E/R283W/T359I/V293S).
T1 construct: amino acids 41-187 followed by a Gly-Ser-Gly linker and amino acids 249-426; His6 (N, cleaved yes); made in house; host or cells: E. coli BL21(DE3)
T1 sequence (Q96SW2 with tags, fused parts or gaps with the stated changes limits assumed): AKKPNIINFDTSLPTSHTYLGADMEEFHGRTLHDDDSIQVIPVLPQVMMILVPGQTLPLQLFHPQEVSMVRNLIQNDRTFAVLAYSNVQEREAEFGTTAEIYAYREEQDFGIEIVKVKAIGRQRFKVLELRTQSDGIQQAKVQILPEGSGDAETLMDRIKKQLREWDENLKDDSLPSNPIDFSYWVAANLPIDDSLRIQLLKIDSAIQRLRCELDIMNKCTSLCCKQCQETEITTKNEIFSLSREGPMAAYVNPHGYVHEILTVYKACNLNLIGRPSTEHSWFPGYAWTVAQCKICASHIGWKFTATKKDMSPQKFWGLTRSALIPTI
Put plainly: Thermal denaturation (turbidity, Prometheus Panta) of CRBN^midi +/- binders, Fig. 2f. Also on record: First derivative: unit not given here. It counts as binding. The conditions noted are these: for increase of Tm / denaturation temperature of CRBN^midi / melting temperature (Tm) of CRBN^midi in presence of binder: 100 µM binder; for increase of Tm / denaturation temperature of CRBN^midi: versus apo; for melting temperature (Tm) of CRBN^midi in presence of binder: apo Tm 44.5 °C; for First derivative: thermal denaturation trace. How it is done:
Protein aggregation was assessed, and turbidity values were calculated by the PR.Panta control software (NanoTemper Technologies). First derivative curves were plotted using Prism software (GraphPad version 10).

The target of assay [2] is T1, CRBN^midi. Put plainly: SEC-SAXS of CRBN^midi with binders (radius of gyration). On Rg, Guinier analysis: values in Å. On Rg, P(r) Analysis from AUTOGNOM: values in Å. On dmax, P(r) analysis: values in Å. The conditions noted are these: for RG of ligand-bound CRBN^midi: 200 µM ligand, apo 26.73 Å; for Rg, P(r) Analysis from AUTOGNOM / dmax, P(r) analysis / Rg, Guinier analysis: Supplementary Table 3; for Rg, P(r) Analysis from AUTOGNOM: apo 26.91 ± 0.04; for dmax, P(r) analysis: apo 172.46; for Rg, Guinier analysis: binder 400 µM (mezigdomide, lenalidomide) or 200 µM (Boc-VcN, Boc-AcQ), apo 26.73 ± 0.06. How it is done:
Frames from SEC-SAXS that corresponded to the main protein peak, were merged using Chromixs[61] and analyzed using the ATSAS (version 3.2.1) package. Radii of gyration and molecular mass were extrapolated from the Guinier plot using Primus. Pairwise-distance distributions were calculated using GNOM[63]. The dimensionless Kratky plot[49] was obtained by manually plotting (qRg)^2I(q)/I0 against qRg.
The open conformation model was obtained by homology modelling using the SWISS-MODEL webserver (accessed April 18th 2023)[65] with the cryo-EM structure of apo-CRBN (PDB ID: 8CVP)[25] as the input structure.
In general terms: Size exclusion chromatography separates by hydrodynamic size, large species first.

[3] abbreviates: T[°C] 86.7721 lenalidomide, 86.7698 Boc-VcN, 86.7691 Boc-AcQ.
[4] abbreviates: T[°C] 86.8918 lenalidomide, 86.8895 Boc-VcN, 86.8888 Boc-AcQ.
Setting [5] is: T[°C] 87.0114 lenalidomide, 87.0091 Boc-VcN, 87.0084 Boc-AcQ.
[6] abbreviates: T[°C] 87.1311 lenalidomide, 87.1288 Boc-VcN, 87.1281 Boc-AcQ.
The mark [7] stands for this setting: T[°C] 87.2507 lenalidomide, 87.2484 Boc-VcN, 87.2477 Boc-AcQ.
Where [8] appears, read: T[°C] 87.3704 lenalidomide, 87.3681 Boc-VcN, 87.3674 Boc-AcQ.
Setting [9] is: T[°C] 87.49 lenalidomide, 87.4877 Boc-VcN, 87.487 Boc-AcQ.
Setting [10] is: T[°C] 87.6097 lenalidomide, 87.6074 Boc-VcN, 87.6067 Boc-AcQ.
The mark [11] stands for this setting: T[°C] 87.7294 lenalidomide, 87.727 Boc-VcN, 87.7263 Boc-AcQ.
Where [12] appears, read: T[°C] 87.849 lenalidomide, 87.8467 Boc-VcN, 87.846 Boc-AcQ.
Setting [13] is: T[°C] 87.9687 lenalidomide, 87.9664 Boc-VcN, 87.9656 Boc-AcQ.
Setting [14] is: T[°C] 88.0883 lenalidomide, 88.086 Boc-VcN, 88.0853 Boc-AcQ.
Where [15] appears, read: T[°C] 88.208 lenalidomide, 88.2057 Boc-VcN, 88.205 Boc-AcQ.
The mark [16] stands for this setting: T[°C] 88.3276 lenalidomide, 88.3253 Boc-VcN, 88.3246 Boc-AcQ.
Where [17] appears, read: T[°C] 88.4473 lenalidomide, 88.445 Boc-VcN, 88.4443 Boc-AcQ.
Setting [18] is: T[°C] 88.567 lenalidomide, 88.5646 Boc-VcN, 88.5639 Boc-AcQ.
The mark [19] stands for this setting: T[°C] 88.6866 lenalidomide, 88.6843 Boc-VcN, 88.6836 Boc-AcQ.
The mark [20] stands for this setting: T[°C] 88.8063 lenalidomide, 88.8039 Boc-VcN, 88.8032 Boc-AcQ.
The mark [21] stands for this setting: T[°C] 88.9259 lenalidomide, 88.9236 Boc-VcN, 88.9229 Boc-AcQ.
Where [22] appears, read: T[°C] 89.0456 lenalidomide, 89.0432 Boc-VcN, 89.0425 Boc-AcQ.
The mark [23] stands for this setting: T[°C] 89.1653 lenalidomide, 89.1629 Boc-VcN, 89.1622 Boc-AcQ.
Where [24] appears, read: T[°C] 89.2849 lenalidomide, 89.2825 Boc-VcN, 89.2818 Boc-AcQ.
Where [25] appears, read: T[°C] 89.4046 lenalidomide, 89.4022 Boc-VcN, 89.4015 Boc-AcQ.
Where [26] appears, read: T[°C] 89.5242 lenalidomide, 89.5218 Boc-VcN, 89.5211 Boc-AcQ.
Where [27] appears, read: T[°C] 89.6439 lenalidomide, 89.6415 Boc-VcN, 89.6408 Boc-AcQ.
[28] abbreviates: T[°C] 89.7635 lenalidomide, 89.7612 Boc-VcN, 89.7604 Boc-AcQ.
Setting [29] is: T[°C] 89.8832 lenalidomide, 89.8808 Boc-VcN, 89.8801 Boc-AcQ.
[30] abbreviates: T[°C] 90.0028 lenalidomide, 90.0005 Boc-VcN, 89.9997 Boc-AcQ.

For `C[C@H](NC(=O)OC(C)(C)C)C(=O)N[C@H]1CCC(=O)NC1=O` [Boc-AcQ, tert-butyl ((S)-1-(((S)-2,6-dioxopiperidin-3-yl)amino)-1-oxopropan-2-yl)carbamate], the “increase of Tm / denaturation temperature of CRBN^midi” value on CRBN^midi [1] turned out to be 8.3 °C. Besides, the “melting temperature (Tm) of CRBN^midi in presence of binder” value at CRBN^midi [1] was determined as 52.8 °C. Moreover, the First derivative on CRBN^midi [1] (setting [3]) was -0.02853; on CRBN^midi [1] (setting [4]), -0.0315; on CRBN^midi [1] (setting [5]), -0.03497; on CRBN^midi [1] (setting [6]), -0.03881; on CRBN^midi [1] (setting [7]), -0.04291; on CRBN^midi [1] (setting [8]), -0.04716. Besides, the First derivative on CRBN^midi [1] (setting [9]) was -0.05142; at CRBN^midi [1] (setting [10]), -0.05268; at CRBN^midi [1] (setting [11]), -0.05356; on CRBN^midi [1] (setting [12]) it was -0.05436; at CRBN^midi [1] (setting [13]), -0.05515; on CRBN^midi [1] (setting [14]), -0.0559. Moreover, the First derivative on CRBN^midi [1] (setting [15]) was -0.05659; on CRBN^midi [1] (setting [16]) it was -0.05718; at CRBN^midi [1] (setting [17]), -0.05764; at CRBN^midi [1] (setting [18]), -0.05798; on CRBN^midi [1] (setting [19]), -0.05817; at CRBN^midi [1] (setting [20]), -0.05821. Moreover, the First derivative at CRBN^midi [1] (setting [21]) is -0.0581; on CRBN^midi [1] (setting [22]) it was -0.05783; at CRBN^midi [1] (setting [23]) it was -0.05741; on CRBN^midi [1] (setting [24]), -0.05684; on CRBN^midi [1] (setting [25]), -0.05611; at CRBN^midi [1] (setting [26]), -0.05525. For the same compound, the First derivative was -0.05424 at CRBN^midi [1] (setting [27]), -0.05311 at CRBN^midi [1] (setting [28]), -0.05186 on CRBN^midi [1] (setting [29]) and -0.0505 at CRBN^midi [1] (setting [30]). Besides, the “RG of ligand-bound CRBN^midi” value on CRBN^midi [2] was 24.29 Å and 24.3 Å. The “Rg, P(r) Analysis from AUTOGNOM” value on CRBN^midi [2] stood at 24.25 ± 0.04 Å. Besides, the “dmax, P(r) analysis” value at CRBN^midi [2] is recorded as 146.92 Å. For the same compound, the “Rg, Guinier analysis” value at CRBN^midi [2] came out at 24.29 ± 0.05 Å.

Consider `N#Cc1ccc(N2CCN(Cc3ccc(COc4cccc5c4CN([C@H]4CCC(=O)NC4=O)C5=O)cc3)CC2)c(F)c1` [mezigdomide, Mezigdomide], for which, at CRBN^midi [2], the “Rg, P(r) Analysis from AUTOGNOM” value is reported as 22.45 ± 0.04 Å; the “dmax, P(r) analysis” value came out at 145.02 Å; the “Rg, Guinier analysis” value was 22.79 ± 0.06 Å.

Turning to `CC(C)[C@H](NC(=O)OC(C)(C)C)C(=O)NC1CC(=O)NC1=O` (stereo partly drawn) [Boc-VcN, Tert-butyl ((2S)-1-((2,5-dioxopyrrolidin-3-yl)amino)-3-methyl-1-oxobutan-2-yl)carbamate], the “increase of Tm / denaturation temperature of CRBN^midi” value on CRBN^midi [1] was 11.1 °C. In addition, at CRBN^midi [1], the “melting temperature (Tm) of CRBN^midi in presence of binder” value was found to be 55.6 °C. The First derivative was -0.05947 on CRBN^midi [1] (setting [3]); -0.05823 on CRBN^midi [1] (setting [4]); -0.05736 at CRBN^midi [1] (setting [5]); -0.05707 at CRBN^midi [1] (setting [6]); -0.05755 at CRBN^midi [1] (setting [7]); -0.05896 on CRBN^midi [1] (setting [8]). The First derivative at CRBN^midi [1] (setting [9]) is -0.06138; on CRBN^midi [1] (setting [10]) it was -0.06805; at CRBN^midi [1] (setting [11]), -0.07618; at CRBN^midi [1] (setting [12]), -0.08482; on CRBN^midi [1] (setting [13]), -0.09355; at CRBN^midi [1] (setting [14]), -0.1023. The First derivative at CRBN^midi [1] (setting [15]) is on record as -0.1109; on CRBN^midi [1] (setting [16]) it was -0.1196; on CRBN^midi [1] (setting [17]) it was -0.1282; at CRBN^midi [1] (setting [18]) it was -0.1368; at CRBN^midi [1] (setting [19]), -0.1455; on CRBN^midi [1] (setting [20]) it was -0.1543. For the same compound, the First derivative at CRBN^midi [1] (setting [21]) is recorded as -0.1632; at CRBN^midi [1] (setting [22]), -0.1723; on CRBN^midi [1] (setting [23]), -0.1815; at CRBN^midi [1] (setting [24]), -0.191; on CRBN^midi [1] (setting [25]) it was -0.2007; at CRBN^midi [1] (setting [26]) it was -0.2106. The First derivative on CRBN^midi [1] (setting [27]) is given as -0.2208; at CRBN^midi [1] (setting [28]) it was -0.2313; on CRBN^midi [1] (setting [29]), -0.2421; on CRBN^midi [1] (setting [30]), -0.2531. On CRBN^midi [2], the “RG of ligand-bound CRBN^midi” value is 23.41 Å and 23.4 Å. Besides, the “Rg, P(r) Analysis from AUTOGNOM” value on CRBN^midi [2] is listed as 22.93 ± 0.03 Å. In addition, the “dmax, P(r) analysis” value at CRBN^midi [2] is recorded as 137.14 Å. Besides, at CRBN^midi [2], the “Rg, Guinier analysis” value worked out at 23.41 ± 0.05 Å.
